How the values were obtained:
RAW264.7 [1] = assay: Inhibition of LPS/IFN gamma stimulated RAW264.7 cells determined by MTS assay; assay type: functional; conditions: Mus musculus
RAW264.7 [2] = assay: Suppression of nitric oxide production in the LPS/IFN gamma stimulated RAW264.7 cells; assay type: functional, cell-based; conditions: Mus musculus

IC50 (RAW264.7 [2]) [µM]	SMILES	GI50 (RAW264.7 [1]) [µM]
2.33	CC[n+]1c(/C=C/c2ccc(N(C)C)cc2)sc2ccc(C)cc21	> 10
11.5	CC[n+]1c(/C=C2\Sc3ccccc3N2CCC(=O)O)sc2ccccc21	> 10
10.8	CC[n+]1c(/C=C/c2ccc(N(C)C)cc2)sc2ccc(C(=O)OC)cc21	> 10
0.253	CC[n+]1c(/C=C2\C=Cc3ccc(C)cc3N2C)sc2ccccc21	> 10
0.178	CC[n+]1c(/C=C2\C=Cc3cc(C)ccc3N2C)sc2ccccc21	> 10
0.244	CCN1/C(=C/c2sc3ccccc3[n+]2CC)C=Cc2ccccc21	> 10
4.8	CN(C)c1ccc(/C=C/c2sc3ccccc3[n+]2C)cc1	> 10
7.61	CC[n+]1c(/C=C(\C)NCc2ccccc2)sc2ccccc21	> 10
0.461	CCN1/C(=C/C(=C/c2sc3ccccc3[n+]2CC)OC)Sc2ccccc21	> 10
27.2	CC[n+]1c(/C=C2\C=Cc3ccc(C)cc3N2CCCS(=O)(=O)O)sc2ccccc21	> 10
51.9	NC(=C\c1sc2ccccc2[n+]1CCCS(=O)(=O)O)/C=C1\Sc2ccccc2N1CCCS(=O)(=O)O	> 10
0.216	CCN1/C(=C/c2sc3ccccc3[n+]2C)C=Cc2ccccc21	> 10
0.055	CCC(/C=C1\Sc2ccccc2N1C)=C\c1sc2ccccc2[n+]1C	5.5
0.402	CCC(/C=C1\Sc2ccc(Cl)cc2N1C)=C\c1sc2ccc(Cl)cc2[n+]1C	7.9
5.78	CCC(/C=C1\Sc2ccccc2N1CCCS(=O)(=O)O)=C\c1sc2ccccc2[n+]1CC	> 10
0.259	CCN1/C(=C/c2sc3ccc(I)cc3[n+]2CC)C=Cc2ccccc21	> 10
4.94	CC[n+]1c(/C=C/c2ccc(N(C)C)cc2)sc2ccccc21	> 10
13.3	CCN1/C(=C/c2sc3ccccc3[n+]2CC)C=Cc2cc(NC(C)=O)ccc21	> 10
20.2	CC(/C=C1\Sc2ccccc2N1CCO)=C\c1sc2ccccc2[n+]1CCO	> 10
0.198	CCN1/C(=C/C(C)=C/c2sc3ccccc3[n+]2CC)Sc2ccccc21	> 10
0.215	CCCC[n+]1c(C=C2C=Cc3ccccc3N2CC)sc2ccccc21	5.5
24.2	CC[n+]1c(/C=C(/C)SC)sc2ccccc21	> 10
44.8	CC[n+]1c(/C=C(\C)Nc2ccccc2)sc2ccccc21	> 10
0.444	CCN1C(=Cc2sc3ccccc3[n+]2C)C=Cc2ccc(C)cc21	> 10
0.662	CN1/C(=C/C(=C/c2sc3ccccc3[n+]2C)C2CCC2)Sc2ccccc21	6.5

IC50 (RAW264.7 [2]) [µM]	SMILES	GI50 (RAW264.7 [1]) [µM]
0.741	CCC(/C=C1\Sc2ccc(Cl)cc2N1CC)=C\c1sc2ccc(Cl)cc2[n+]1CC	9
0.318	CCN1C(=Cc2sc3ccccc3[n+]2C)C=Cc2cccc(C)c21	> 10
0.258	CCN1/C(=C/c2sc3cc(C)c(C)cc3[n+]2CC)C=Cc2ccccc21	5.8
69.5	COc1ccc2sc(/C=C(\C)SC)[n+](CCCS(=O)(=O)[O-])c2c1	> 10
64.6	O=S(=O)(O)CCCN1/C(=C/c2sc3ccccc3[n+]2CCCS(=O)(=O)O)C=Cc2ccccc21	> 10
3.64	CC/C(=C/c1sc2ccc(OC)cc2[n+]1CC)SC	> 10
66.1	CC/C(=C\c1sc2ccc(OC)cc2[n+]1CCCS(=O)(=O)[O-])SC	> 10
2.27	CC[n+]1c(/C=C/c2ccc(N(C)C)cc2)sc2cc(C)ccc21	> 10
0.637	CCN1/C(=C/C(=C/c2sc3ccccc3[n+]2CC)SC)Sc2ccccc21	> 10
0.288	CCCN1/C(=C/c2sc3ccccc3[n+]2CC)C=Cc2ccccc21	> 10
3.99	CC/C(=C\c1sc2ccc(OC)cc2[n+]1CC)SC	> 10
2.16	CN(C)c1ccc(/C=C/c2sc3ccc4ccccc4c3[n+]2C)cc1	> 10
1.06	CCN1C(=Cc2sc3ccc(OC)cc3[n+]2CC)C=Cc2ccccc21	9.3
10.7	CC[n+]1c(C=C2Sc3ccccc3N2CCO)sc2ccccc21	> 10
18.4	CC[n+]1c(/C=C(/C)SC)sc2ccc(OC)cc21	> 10
0.847	CCN1/C(=C/C(N)=C/c2sc3ccccc3[n+]2CC)Sc2ccccc21	> 10
0.295	CCN1/C(=C/c2sc3ccc(C)cc3[n+]2CC)C=Cc2ccccc21	> 10
0.403	CCN1/C(=C/c2sc3ccccc3[n+]2CC)Sc2ccccc21	> 10
4.69	CN1/C(=C/c2sc3ccccc3[n+]2C)Sc2ccccc21	> 10
0.183	CCN1/C(=C/c2sc3ccccc3[n+]2CC)C=Cc2ccc(C)cc21	> 10
0.241	CCN1/C(=C/c2sc3ccc(Br)cc3[n+]2CC)C=Cc2ccccc21	> 10
0.684	CCN1/C(=C/c2sc3cc(OC)c(OC)cc3[n+]2CC)C=Cc2ccccc21	> 10
0.062	CCC(/C=C1\Sc2ccccc2N1CC)=C\c1sc2ccccc2[n+]1CC	5.5
3.31	CC[n+]1c(/C=C/c2ccc(N(C)C)cc2)sc2cc(NC(C)=O)ccc21	> 10
